# Assay results as given in patent US12509373B2, “Composition and method for the removal of biofilm” (LANXESS Corporation, priority 2020, dated 2025).
# How the values were obtained:
# [1] = system: anaerobic D. vulgaris biofilms; settings: high levels of sugar analogs needed; WO2019/018087; cited from earlier work
# [2] = system: Desulfovibrio vulgaris biofilm; assay: Biofilm removal, Crystal Violet Assay (anaerobic, 24 h treatment of pre-formed biofilm); format: cell-based
# Protocol: A lyophilized D. vulgaris pure culture received from ATTCC was resuspended in 500 ul of MB 1249. Aseptically, the content was transferred to a 5¬mL tube of MB1249 medium. The culture was incubated in an anaerobic chamber at 30° C. for 72 hrs. Subsequently, a stock culture with a final concentration of 25% glycerol was prepared by adding equal volumes of culture and 50% glycerol. 1 ml of culture was then transferred to 2-ml cryogenic vials and stored AT-80c. The purity of the stock culture was evaluated through PCR, by amplifying the 16S rDNA region, and thus, it was verified that the original ATCC sample was a pure culture.
# A 10% culture was prepared by taking 1 mL of stock culture and adding it to 9 mL of MB1249, then the culture was placed into a 30° C. side incubator within the chamber and incubated for 72 hours. After 72 hours of incubation, the 10-ml D. vulgaris culture was added to 40 ml of MB1249 medium and incubated for 48 hours. After the incubation time, the optical density of the culture was determined by taking 100 μL of culture and adding it to 900 μL of MB1249 in a cuvette. Another cuvette was filled with 1 mL of MB1249 for a blank. Then, each of culture cuvettes were read and their optical density (O.D.) was recorded by using the Thermofisher Spectronic 200 Spectrophotometer at 620 nm. Using a C1V1=C2V2 calculation and the optical density, the final concentration of culture added to the 96 well plates was ˜0.1 O.D. Then, NUNC Round bottom 96 well plates were filled with culture and anaerobic PBS+10% MB1249. The plates were placed into the side incubator of the anaerobic chamber at 30° C. for 24 hours to form biofilm.
# After 24 hours of incubation at 30° C., all plates were removed from the incubator and the volume from each well was taken out with a multi-channel pipette. Then, the wells were re-filled with PBS+10% MB1249 and treatments.
# The sugar analogues used in the treatment were α-Methyl D-Mannoside (αMM) and 2-Deoxy-D-Glucose (2DG). Both αMM and 2DG were purchased from Sigma. Stocks were prepared (W/V) by weighing sugar and adding anaerobic water inside the anaerobic chamber. The Glutaraldehyde, AQUCAR™ GA50 (“Glutaraldehyde”), was prepared outside of the chamber (V/V) as a safety measure. Each of the components were added at their respective concentrations for a final volume of 200 ul per well. In Table 3, the concentrations used for the synergy experiments are listed. Each experiment was done with at least six replicates for different treatments and at least 8 replicates for non-treatment controls.
# Plates were then sealed with a titer-top and placed into anaerobic boxes with a gas pack. Then, incubated in an aerobic shaking incubator, 30° C. at 115 RPM. After 24 hours, the plates were processed using a Crystal Violet Assay.
# After 24 hours of treatment, all the treatment solution was gently removed from plates using a multi-channel pipette. Then, 250 μL of DI water was re-filled into the wells. This step was then repeated so the plates were each rinsed twice. If residual DI water was in plates, they were inverted and gently patted onto a thick paper towel. Then, the plates were air dried in a ventilated hood.
# To fix the biofilm in the wells, 250 μL per well of methanol was used, waiting time 5 minutes. This methanol was then removed and allowed to air dry. […] Then, the plates were placed into the Biotek Cytation 5, and the optical density (OD) was read at 600 nm. […]
SMILES,dispersal of anaerobic D. vulgaris biofilms [1],"% OD compared to no-treatment control ([2]; standalone, 2000 ppm) [%]","% OD compared to no-treatment control ([2]; Glutaraldehyde 25 ppm alone (2DG 0 ppm), 2DG combination experiment) [%]","% OD compared to no-treatment control ([2]; Glutaraldehyde 25 ppm alone (αMM 0 ppm), αMM combination experiment) [%]","% OD compared to no-treatment control ([2]; standalone, 2500 ppm) [%]"
"CO[C@H]1O[C@H](CO)[C@@H](O)[C@H](O)[C@@H]1O [αMM, α-Methyl D-Mannoside]",disperse anaerobic D. vulgaris biofilms,100.3,,,
"O=CC[C@@H](O)[C@H](O)[C@H](O)CO [2DG, 2-Deoxy-D-Glucose]",disperse anaerobic D. vulgaris biofilms,101.7,,,
O=CCCCC=O [Glutaraldehyde],,,92.7,99.3,97.4
